Key:
[1] = Control of coloration in an aqueous solution formulation containing sodium carbonate (absorbance 380 nm); type: physicochemical; settings: for change in absorbance, just after dissolution / change in absorbance, preservation time 1 hr / change in absorbance, preservation time 2 hr / change in absorbance, preservation time 3 hr / change in absorbance, preservation time 4 hr / change in absorbance, preservation time 5 hr / change in absorbance, preservation time 6 hr: 25° C., 380 nm
Experimental: Multiple vials were prepared, and sodium carbonate, Compound A and imipenem in amounts indicated in Table 14 were weighed, respectively and each mixture was put in each vial. A physiological saline (100 ml) was added to each vial to be dissolved. Coloration (change of color) just after dissolution and when the solution was preserved at one hour intervals for 6 hours at 25° C. were measured by absorbency on Compound A and imipenem.
• Condition of measurement by spectrophotometer • cell: quartz 12.5 mm×12.5 mm×45 mm, capacity 3.5 ml • wavelength: 380 nm • measurement temperature: 25° C. • instrument: UV-2200A (Shimadzu)
The numbers described in columns of “just after dissolution” and each “preservation time” on Table 15 show values of change in absorbance just after dissolution when measured under the above conditions.

[2] = Stability in an aqueous solution of a formulation containing sodium bicarbonate (HPLC); type: physicochemical; settings: for reduction of amount of Compound A: 6 hours at 25° C.
Experimental: Multiple vials were prepared and amounts of Compound A and sodium bicarbonate indicated in Table 5 were weighed and filled in each vial. Thereto was added physiological saline (100 ml). Amounts of Compound A and its degradation, Compounds B and C were measured just after dissolution and after preservation for 6 hours at 25° C.
• column: SUMIPAX ODS-A212 (silica gel binding with octadecyl group, • particle size: 5 μm; 6.0 mmφ×15 cm) • detector: ultraviolet spectrophotometer (wavelength: 220 nm) • column temperature: constant temperature around at 25° C. • mobile phase: A solution; 5 mmol/L phosphate buffer (pH7) and acetonitrile (300:23), B solution: acetonitrile • flow rate: 1.0 mL/min. • gradient condition: as shown in Table 6
The numbers described in columns of “just after dissolution” and “after preservation for 6 hours at 25° C.” on Table 8 show area % per total peaks which appear until 55 minutes under the above HPLC conditions.

[3] = 0.5 g/vial + sodium carbonate 0.0 mg/vial in physiological saline 100 ml
[4] = 0.5 g/vial + sodium carbonate 1.0 mg/vial in physiological saline 100 ml
[5] = 0.5 g/vial + sodium carbonate 1.5 mg/vial in physiological saline 100 ml
[6] = 0.5 g/vial + sodium carbonate 2.0 mg/vial in physiological saline 100 ml
[7] = 0.5 g/vial + sodium carbonate 2.5 mg/vial in physiological saline 100 ml
[8] = 0.5 g/vial + sodium carbonate 3.0 mg/vial in physiological saline 100 ml
[9] = Comp. A 0.5 g/vial + sodium bicarbonate 0.0 mg/vial in physiological saline 100 ml
[10] = Comp. A 0.5 g/vial + sodium bicarbonate 1.0 mg/vial in physiological saline 100 ml
[11] = Comp. A 0.5 g/vial + sodium bicarbonate 2.5 mg/vial in physiological saline 100 ml
[12] = Comp. A 0.5 g/vial + sodium bicarbonate 5.0 mg/vial in physiological saline 100 ml
[13] = Comp. A 0.5 g/vial + sodium bicarbonate 10 mg/vial in physiological saline 100 ml
[14] = Comp. A 0.5 g/vial + sodium bicarbonate 15 mg/vial in physiological saline 100 ml
[15] = Comp. A 0.5 g/vial + sodium bicarbonate 20 mg/vial in physiological saline 100 ml
[16] = Comp. A 0.5 g/vial + sodium bicarbonate 50 mg/vial in physiological saline 100 ml
[17] = Comp. A 0.5 g/vial + sodium bicarbonate 100 mg/vial in physiological saline 100 ml

C[C@H]1C=C(c2csc(SC3=C(C(=O)O)N4C(=O)[C@H]([C@@H](C)O)[C@H]4[C@H]3C)n2)CN1 [Compound A, (4R,5S,6S)-6-[(1R)-1-hydroxyethyl]-4-methyl-3-({4-[(5S)-5-methyl-2,5-dihydro-1H-pyrrol-3-yl]-1,3-thiazol-2-yl}sulfanyl)-7-oxo-1-azabicyclo[3.2.0]hept-2-ene-2-carboxylic acid]
coloration by the visual inspection compared with a solution just after dissolution ([1]; 1.5 mg additive per 500 mg (printed sodium bicarbonate; Table 15: sodium carbonate), 6 hours at 25° C.): coloration was not observed by the visual inspection | change in absorbance, just after dissolution [1, 3]: 0.00 Abs | change in absorbance, preservation time 1 hr [1, 3]: 0.01 Abs | change in absorbance, preservation time 2 hr [1, 3]: 0.03 Abs | change in absorbance, preservation time 3 hr [1, 3]: 0.05 Abs | change in absorbance, preservation time 4 hr [1, 3]: 0.07 Abs | change in absorbance, preservation time 5 hr [1, 3]: 0.11 Abs | change in absorbance, preservation time 6 hr [1, 3]: 0.13 Abs | change in absorbance, just after dissolution [1, 4]: 0.00 Abs | change in absorbance, preservation time 1 hr [1, 4]: 0.00 Abs | change in absorbance, preservation time 2 hr [1, 4]: 0.00 Abs | change in absorbance, preservation time 3 hr [1, 4]: 0.01 Abs | change in absorbance, preservation time 4 hr [1, 4]: 0.02 Abs | change in absorbance, preservation time 5 hr [1, 4]: 0.03 Abs | change in absorbance, preservation time 6 hr [1, 4]: 0.04 Abs | change in absorbance, just after dissolution [1, 5]: 0.00 Abs | change in absorbance, preservation time 1 hr [1, 5]: 0.00 Abs | change in absorbance, preservation time 2 hr [1, 5]: 0.00 Abs | change in absorbance, preservation time 3 hr [1, 5]: 0.00 Abs | change in absorbance, preservation time 4 hr [1, 5]: 0.00 Abs | change in absorbance, preservation time 5 hr [1, 5]: 0.01 Abs | change in absorbance, preservation time 6 hr [1, 5]: 0.02 Abs | change in absorbance, just after dissolution [1, 6]: 0.00 Abs | change in absorbance, preservation time 1 hr [1, 6]: 0.00 Abs | change in absorbance, preservation time 2 hr [1, 6]: 0.00 Abs | change in absorbance, preservation time 3 hr [1, 6]: 0.00 Abs | change in absorbance, preservation time 4 hr [1, 6]: 0.00 Abs | change in absorbance, preservation time 5 hr [1, 6]: 0.00 Abs | change in absorbance, preservation time 6 hr [1, 6]: 0.01 Abs | change in absorbance, just after dissolution [1, 7]: 0.00 Abs | change in absorbance, preservation time 1 hr [1, 7]: 0.00 Abs | change in absorbance, preservation time 2 hr [1, 7]: 0.00 Abs | change in absorbance, preservation time 3 hr [1, 7]: 0.00 Abs | change in absorbance, preservation time 4 hr [1, 7]: 0.00 Abs | change in absorbance, preservation time 5 hr [1, 7]: 0.00 Abs | change in absorbance, preservation time 6 hr [1, 7]: 0.00 Abs | change in absorbance, just after dissolution [1, 8]: 0.00 Abs | change in absorbance, preservation time 1 hr [1, 8]: 0.00 Abs | change in absorbance, preservation time 2 hr [1, 8]: 0.00 Abs | change in absorbance, preservation time 3 hr [1, 8]: 0.00 Abs | change in absorbance, preservation time 4 hr [1, 8]: 0.00 Abs | change in absorbance, preservation time 5 hr [1, 8]: 0.00 Abs | change in absorbance, preservation time 6 hr [1, 8]: 0.00 Abs | suppression of coloration of the solution ([1]; at least 1.5 mg (0.003 part by weight) of sodium carbonate per 500 mg): observed | Comp. A after preservation for 6 hrs. at 25° C. [2, 9]: 95.8 area % | Comp. A just after dissolution [2, 9]: 98.8 area % | Comp. B after preservation for 6 hrs. at 25° C. [2, 9]: 3.0 area % | Comp. B just after dissolution [2, 9]: 0.7 area % | Comp. C after preservation for 6 hrs. at 25° C. [2, 9]: 0.5 area % | Comp. C just after dissolution [2, 9]: 0.0 area % | Comp. A after preservation for 6 hrs. at 25° C. [2, 10]: 96.6 area % | Comp. A just after dissolution [2, 10]: 98.9 area % | Comp. B after preservation for 6 hrs. at 25° C. [2, 10]: 2.7 area % | Comp. B just after dissolution [2, 10]: 0.7 area % | Comp. C after preservation for 6 hrs. at 25° C. [2, 10]: 0.2 area % | Comp. C just after dissolution [2, 10]: 0.0 area % | Comp. A after preservation for 6 hrs. at 25° C. [2, 11]: 96.6 area % | Comp. A just after dissolution [2, 11]: 98.9 area % | Comp. B after preservation for 6 hrs. at 25° C. [2, 11]: 2.8 area % | Comp. B just after dissolution [2, 11]: 0.7 area % | Comp. C after preservation for 6 hrs. at 25° C. [2, 11]: ≤ 0.1 area % | Comp. C just after dissolution [2, 11]: 0.0 area % | Comp. C after preservation for 6 hrs. at 25° C. ([2]; Comp. A 0.5 g/vial + sodium bicarbonate 2.5 mg/vial in physiological saline 100 ml, listed as Comp. A): 0.0 area % | Comp. A after preservation for 6 hrs. at 25° C. [2, 12]: 96.3 area % | Comp. A just after dissolution [2, 12]: 98.9 area % | Comp. B after preservation for 6 hrs. at 25° C. [2, 12]: 3.0 area % | Comp. B just after dissolution [2, 12]: 0.6 area % | Comp. C after preservation for 6 hrs. at 25° C. [2, 12]: 0.0 area % | Comp. C just after dissolution [2, 12]: 0.0 area % | Comp. A after preservation for 6 hrs. at 25° C. [2, 13]: 95.9 area % | Comp. A just after dissolution [2, 13]: 98.9 area % | Comp. B after preservation for 6 hrs. at 25° C. [2, 13]: 3.5 area % | Comp. B just after dissolution [2, 13]: 0.7 area % | Comp. C after preservation for 6 hrs. at 25° C. [2, 13]: 0.0 area % | Comp. C just after dissolution [2, 13]: 0.0 area % | Comp. A after preservation for 6 hrs. at 25° C. [2, 14]: 95.4 area % | Comp. A just after dissolution [2, 14]: 98.9 area % | Comp. B after preservation for 6 hrs. at 25° C. [2, 14]: 3.9 area % | Comp. B just after dissolution [2, 14]: 0.6 area % | Comp. C after preservation for 6 hrs. at 25° C. [2, 14]: 0.0 area % | Comp. C just after dissolution [2, 14]: 0.0 area % | Comp. A after preservation for 6 hrs. at 25° C. [2, 15]: 95.2 area % | Comp. A just after dissolution [2, 15]: 98.8 area % | Comp. B after preservation for 6 hrs. at 25° C. [2, 15]: 4.1 area % | Comp. B just after dissolution [2, 15]: 0.6 area % | Comp. C after preservation for 6 hrs. at 25° C. [2, 15]: 0.0 area % | Comp. C just after dissolution [2, 15]: 0.0 area % | Comp. A after preservation for 6 hrs. at 25° C. [2, 16]: 93.5 area % | Comp. A just after dissolution [2, 16]: 98.6 area % | Comp. B after preservation for 6 hrs. at 25° C. [2, 16]: 5.5 area % | Comp. B just after dissolution [2, 16]: 0.7 area % | Comp. C after preservation for 6 hrs. at 25° C. [2, 16]: 0.0 area % | Comp. C just after dissolution [2, 16]: 0.0 area % | Comp. A after preservation for 6 hrs. at 25° C. [2, 17]: 92.4 area % | Comp. A just after dissolution [2, 17]: 98.9 area % | Comp. B after preservation for 6 hrs. at 25° C. [2, 17]: 6.6 area % | Comp. B just after dissolution [2, 17]: 0.6 area % | Comp. C after preservation for 6 hrs. at 25° C. [2, 17]: 0.0 area % | Comp. C just after dissolution [2, 17]: 0.0 area % | reduction of amount of Compound A ([2]; sodium bicarbonate increased to 20 mg from 15 mg per Compound A 500 mg): 0.2% | reduction of amount of Compound A ([2]; sodium bicarbonate increased to 50 mg from 20 mg per Compound A 500 mg): 1.7%
